# From article PMC5538626, “Structural and functional analysis of the GABARAP interaction motif (GIM)” (EMBO Reports, 2017)
# Entries after “also recorded” stand apart in the source; their conditions may differ. Ends that are not written are not given here.
# Legend:
# [1] = system: 6xHis-tagged LC3B and 6xHis-tagged GABARAP; test: Peptide array, preference GABARAP versus LC3B (absorbance ratio); type: binding, human; details: absorbance GABARAP/LC3B or LC3B/GABARAP, cut-off 1.5-fold; mean of n = 3; Figs 1A, EV1B and C
# Text: A high number of autophagy receptors or adaptor structures have been reported, yet the basis for their selective interaction with individual members of the ATG8 family is not well understood. We speculated whether the LIR motif alone is able to confer selectivity towards a mATG8 subfamily and whether we could derive a subfamily consensus motif from analysis of known mATG8 interaction partners. To address this question, we screened an array of peptides (presented in Fig EV1A and described in Materials and Methods) with the LIR sequences of 30 known and validated autophagy receptors and adaptors (Table 1) against all six human mATG8s for binding (Figs 1A and EV1B and C). In brief, biotinylated peptides were immobilized on streptavidin‐coated 96‐well plates and incubated with His6‐tagged mATG8 proteins. After washing steps, peptide‐bound mATG8 was detected in an ELISA reader using anti‐His antibodies directly conjugated to HRP (horse radish peroxidase; Fig EV1A).
# Dashed red line depicts 1.5‐fold change cut‐off.
# Due to the wide range of affinities of various LIR sequences towards the LC3/GABARAP proteins, we have normalized our results by dividing values for LC3B interaction by the corresponding value for interaction with GABARAP (Fig 1A, purple bars) and vice versa (Fig 1A, blue bars) to highlight the potential subfamily selectivity of each LIR sequence tested. We classified ratios greater than 1.5‐fold as an indication of a preferential interaction towards that particular LC3 or GABARAP family member. […] Using this information, we generated a sequence plot (Fig 1B) to ascertain whether there were any common sequence features of the GABARAP‐specific interaction proteins. In addition to the 12 sequences identified in this experiment as preferential GABARAP subfamily interactors, we also included known GABARAP interactors that were not included in our screen (ALFY and KBTBD7). […] The previously identified PLEKHM1‐LIR 19 has a high degree of similarity to this sequence. […] However, it is unclear whether this is the case in vivo.
# Biotinylated peptides (JPT, Germany) were immobilized on streptavidin‐coated 96‐well plates (#436014; Thermo Scientific) in 100 μl PBS containing 0.1% Tween‐20 (PT) and 1% BSA (PTB) overnight on a shaker at 8°C. After three washing steps with 200 μl PT, 100 μl of 1 μM HIS6‐tagged mATG fusion proteins isolated from E. coli in PTB was incubated with the immobilized peptides for 1 h at 8°C. After three washing steps with 200 μl PT, HIS6‐ATG8 bound to peptides was detected after 1‐h incubation with anti‐HIS‐HRP antibody (JP‐A00612; Genscript; 1:5,000 in 100 μl PTB) with the help of TMB substrate Reagent Set (BD OptEIA; 75 μl). The reaction (blue coloration) was stopped by addition of 60 μl 1 M H3PO4. Samples were analysed on a Synergy H1 ELISA reader from BioTek at 450 nm.
# [2] = biological target: LC3B; details: p62 LIR with LC3B; no method, no reference given; cited from earlier work
# Text: Finally, we wanted to apply and subsequently verify our findings by targeted mutation of established autophagy players: p62, FUNDC1 and FIP200. Due to their impact, we specifically substituted existing residues at positions X1 and Γ of LIRs either singly or in combination to valine, thus driving the LIR sequences towards our GIM consensus sequence (Fig 1).
# [3] = system: all six mATG8 proteins; test: Peptide array (ELISA), all six mATG8s; details: 450 nm, Fig 3E, n = 4
# [4] = system: all LC3s; details: GST pull-down; cited from earlier work
# Text: Due to the wide range of affinities of various LIR sequences towards the LC3/GABARAP proteins, we have normalized our results by dividing values for LC3B interaction by the corresponding value for interaction with GABARAP (Fig 1A, purple bars) and vice versa (Fig 1A, blue bars) to highlight the potential subfamily selectivity of each LIR sequence tested. We classified ratios greater than 1.5‐fold as an indication of a preferential interaction towards that particular LC3 or GABARAP family member.
# [5] = system: endogenous GABARAP; test: Co-immunoprecipitation of 3xFlag-FIP200 with endogenous GABARAP, HEK293 cells; type: cell-based; details: HEK293, anti-Flag beads, Western blot; Fig 5B
# Experimental: Blots were probed for the presence of endogenous GABARAP and LC3B proteins. • 3xFlag‐FIP200 WT, E703V, I705V, E703V/I705V and F702A/I705A were overexpressed in HEK293 cells and immunoprecipitated using anti‐Flag beads and subjected to SDS–PAGE and Western blotting. Blots were probed for the presence of endogenous GABARAP and LC3B proteins. • GFP‐FUNDC1 WT, E19V, L21V, E19V/L21V and Y18A/L21A were overexpressed in HEK293 cells and either treated with vehicle only (DMSO) or 20 μM CCCP for 2 h, lysed and GFP‐FUNDC1 immunoprecipitated using anti‐GFP beads (or anti‐RFP beads as control) and subjected to SDS–PAGE and Western blotting. Blots were probed for the presence of endogenous GABARAP and LC3B proteins.
# [6] = system: endogenous GABARAP; test: Co-immunoprecipitation of GFP-mCherry-p62/SQSTM1 with endogenous GABARAP, HEK293 cells; type: cell-based; details: HEK293, basal conditions, anti-RFP beads, Western blot; Fig 5A
# [7] = system: endogenous LC3B; test: Co-immunoprecipitation of GFP-mCherry-p62/SQSTM1 with endogenous LC3B, HEK293 cells; type: cell-based; details: HEK293, basal conditions, anti-RFP beads, Western blot; Fig 5A
# [8] = system: 6xHis-tagged LC3A; test: Peptide array (ELISA), LC3A; details: fold change over WT, mean ± SEM n = 3, Fig EV5A
# [9] = system: 6xHis-tagged LC3C; test: Peptide array (ELISA), LC3C; details: fold change over WT, n = 3, Fig EV5A
# [10] = system: GABARAP family (GABARAP, GABARAP-L1, GABARAP-L2); test: Peptide array (ELISA), GABARAP family; details: fold change over WT, n = 3, Fig EV5A
# [11] = system: 6xHis-tagged LC3B; test: Peptide array (ELISA), LC3B; details: fold change over WT, n = 3, Fig EV5A
# [12] = system: GFP-LC3/GABARAPs; test: Co-immunoprecipitation of endogenous proteins with GFP-mATG8s in HeLa cells; details: 4 h KU-0063794 (10 μM) + chloroquine (20 μM), Fig 2C
substance,measurement,setting,value
"DDDWTHLSS [p62/SQSTM1, LIR peptide 335–343, peptide array]",preference GABARAP versus LC3B,[1],slight preference for GABARAP
same,Kd,[2],~1500 nM
"EDEWVNVQY [PLEKHM1, LIR peptide 632–640, peptide array]",ranking of mATG8 binding,[3],"shows the most potent interaction, followed by GABARAP‐L1, ‐L2, LC3C and LC3A, with LC3B as the weakest interactor"
same,preference GABARAP versus LC3B,[1],clear preference for binding to GABARAP and GABARAP‐L2 over LC3B and LC3C; also recorded: strong preference for GABARAP versus LC3
same,interaction with LC3s,[4],can interact with all LC3s
FVTV: 3xFlag-FIP200 E703V/I705V,interaction of FIP200 with endogenous GABARAP,[5],enhance the interaction between FIP200 (LIR sequence FDFETIPH) and GABARAP
L341V: GFP-mCherry-p62/SQSTM1 L341V,interaction of p62/SQSTM1 with endogenous GABARAP,[6],mild effect; also recorded: little effect on LC3/GABARAP‐specific interaction
same,interaction of p62/SQSTM1 with endogenous LC3B,[7],little effect on LC3/GABARAP‐specific interaction
"V638I: PLEKHM1-LIR array peptide V638I (EDEWVNIQY; also: biotin, position not given here)","interaction with LC3A, Θ and Γ mutants",[8],did not affect
same,"interaction with LC3C, Θ and Γ mutants",[9],did not affect
same,"interaction with GABARAP family, Θ and Γ mutants",[10],small decrease in the interaction
same,"interaction with LC3B, Θ and Γ mutants",[11],increase the affinity
"V638L: PLEKHM1-LIR array peptide V638L (EDEWVNLQY; also: biotin, position not given here)","interaction with LC3A, Θ and Γ mutants",[8],did not affect
same,"interaction with LC3C, Θ and Γ mutants",[9],did not affect
same,"interaction with GABARAP family, Θ and Γ mutants",[10],small decrease in the interaction
same,"interaction with LC3B, Θ and Γ mutants",[11],increase the affinity
endogenous p62/SQSTM1: endogenous p62/SQSTM1 protein in HeLa cells,co-precipitation of endogenous protein with GFP-mATG8s,[12],co‐precipitated with all LC3/GABARAP to a similar extent
